Our source for the melting point values is a melting point compilation (Tetko et al.; mined from patent text by program, amines drawn as free bases though some values may be those of a salt).

A word on the melting point: it is the temperature of the solid-liquid transition. As for `CCCOc1cc(NC(=O)C[C@H]2O[C@H](c3cccc(OC)c3OC)c3cc(Cl)ccc3N(CC(C)(C)CO)C2=O)cc2cc(C(=O)O)oc12`, the melting point was in the range of 175 to 177 °C.

`CC(C)(C)Sc1cccc(C(F)(F)F)c1S(N)(=O)=O` gave a melting point of 91 °C.

`Cc1nc(-c2ccc3c(c2)NC(=O)CO3)c(-c2ccccc2)s1` registered a melting point of 221 to 230 °C.

In turn, `CC(C)c1cccc(OCc2cc(Br)ccc2C(=O)O)c1` gave a melting point of 103 to 122 °C.

Compound `COc1ccccc1N1CCN(CCCOc2cc(C(=O)c3cc4ccccc4[nH]3)ccc2OCc2ccc(C)cc2)CC1` had a melting point of 126 to 128 °C.

Turning to `OC[C@H]1COc2ccc3scc(Cl)c3c2O1`, the melting point lay within 92 to 93 °C.

`O=c1c2c(cnn1CC=Cc1ccccc1)C(Cc1ccccc1)NCCS2` (stereo unspecified) gave a melting point of 101 to 102 °C.

For the compound `Cc1nnsc1C(=O)Nc1ccc(-n2nc(C(F)(F)F)cc2C)cc1`, the melting point fell in the range of 51 to 53 °C.

The compound `CC1(C)COc2cc(Cl)cc(Cl)c2C(O)(c2ccccn2)C1` (stereo unspecified) returned a melting point of 156 °C.

For the compound `O=c1nc(Cl)cc(-c2ccccc2)n1-c1ccccc1`, the melting point was in the range of 141 to 143 °C.

`OC1c2cc(OCc3ccc4ccccc4n3)ccc2OCC1Oc1cccnc1` (stereo unspecified) showed a melting point of 126 to 128 °C.

`CS(=O)(=O)c1ccc(-c2oc3ccccc3c(=O)c2-c2ccc(Br)cc2)cc1` yielded a melting point of 168 to 170 °C.

`Cc1ccc(Cl)c2nc3cccc(C(=O)NCCCN(C)CCCNC(=O)c4cccc5nc6c(Cl)ccc(C)c6nc45)c3nc12` showed a melting point of 200 to 202 °C.

In the case of `CCOC(=O)C=C1CC(c2cccc(C3(c4ccc(OC(F)F)cc4)N=C(N)N(C)C3=O)c2)C1` (stereo unspecified), the melting point is 78 to 80 °C.

Consider `COc1ccc(CC([N+](=O)[O-])C2(CCCCc3ccc(C)cc3)OCCO2)cc1OC` (stereo unspecified), for which the melting point is 89 to 91 °C.

Consider `CCOC(=O)Cc1coc2c(OC)ccc(C(=O)Cc3ccncc3)c12`, for which the melting point fell in the range of 111 to 117 °C.

`C=CCn1c(=O)n(CCCN2CCC3(CC2)C(=O)NCN3c2ccccc2)c2ccccc21` yielded a melting point of 198 °C.

In the case of `CSc1ccc(-c2nn(Cc3ccc(Cl)cc3Cl)c(=S)cc2-c2ccc(Cl)cc2)cc1`, the melting point came out at 183 °C.

`CCCCN(CCCC)c1ccc(C(C#N)=C(C#N)C#N)c(OC)c1`: the melting point is 86 °C.

`O=C(O)CCc1cnoc1-c1ccc(OC(F)(F)F)cc1` returned a melting point of 116 to 118 °C.

As to `CN(C)c1noc(-c2ccc3c(c2)c2cc(-c4ccc(Cl)cc4Cl)c(=O)n(C)c2n3C)n1`, the melting point fell in the range of 320 to 324 °C.

`CN(C)CCCn1c2c(c3ccccc31)CCSCCC2`: the melting point is 70 to 71 °C.

Turning to `COC(=O)C(CCS(N)(=O)=O)c1ccc([N+](=O)[O-])cc1F` (stereo unspecified), the melting point was 99 to 101 °C.

Regarding `Fc1ccc2nc(S)oc2c1`, the melting point was in the range of 248 to 250 °C.

In turn, `O=C1NC(=O)C(Cc2ccc([N+](=O)[O-])cc2)N1` (stereo unspecified) displayed a melting point above 235 °C.

Compound `COc1ccc2ccccc2c1CCNC(C)=O` registered a melting point of 139 °C.

`CC(C)n1nc(C(=CN(C)C)C(=O)c2ccc(F)cc2)ccc1=O` gave a melting point of 161 to 162 °C.

Compound `C=C(C)C(=O)OCCNC(=O)OCCOc1ccccc1-c1ccccc1OCCOC(=O)NCCOC(=O)C(=C)C` displayed a melting point of 72 to 74 °C.

Compound `Cn1cc(-c2cccc(Cl)c2)c(=O)c(-c2ccc(Cl)c(Cl)c2)c1` returned a melting point of 107 to 110 °C.

In turn, `OCC1C=CC(n2c(Br)nc3cc(Cl)c(Cl)cc32)C1` (stereo unspecified) returned a melting point of 126 to 128 °C.

In turn, `COC(=O)c1ccc(NC(=O)CSC(C)=O)cc1` showed a melting point of 137 to 139 °C.

`COC(=O)c1ccc2c(c1)[C@@H](N1CCCC1=O)[C@H](O)C(C)(C)O2` (relative stereo) yielded a melting point of 190 to 192 °C.

Take `COc1ccc(C(=O)Nc2ccccc2)cc1NCc1ccc(OC)c(OC)c1`: the melting point was 187 to 188 °C.

Regarding `C=C(c1cn(-c2c(Cl)cc(C(F)(F)F)cc2Cl)nc1C#N)C(F)(F)F`, the melting point fell in the range of 103 to 104 °C.

Compound `CC(=O)O[C@@H](Cc1ccc(OCCN2CCC(C)(C)c3cc(C(=O)c4ccccc4)ccc32)cc1)C(=O)O` returned a melting point of 60 to 62 °C.

The compound `CCOc1ccc(C2(N)NC(Nc3ccc4c(c3)OCCO4)=NC=C2F)cc1` (stereo unspecified) displayed a melting point of 164 to 167 °C.

In the case of `CCN1C(=O)CCCc2cc(Nc3ncc(Cl)c(Nc4ccc(N5CCOCC5)cc4OC)n3)c(OC)cc21`, the melting point fell in the range of 212 to 214 °C.

The compound `Cc1[nH]c2ccc(F)cc2c1C(=O)NC1CCN(Cc2ccccc2)CC1` displayed a melting point of 166 to 169 °C.

As to `CCOC(=O)C1CC(=O)C(NC(C)=O)=C(O)C1` (stereo unspecified), the melting point was in the range of 112 to 114 °C.

On to `Cc1c(Br)ccc(N)c1C#N`, for which the melting point lay in the range of 111 to 113 °C.

The compound `CC(C)(C)OC(=O)NCC(CC(=O)Nc1ccccc1)c1ccc(Cl)cc1` (stereo unspecified) yielded a melting point of 165 to 167 °C.

As to `NC1CCNC(c2cnccn2)C1` (stereo unspecified), the melting point lay within 158 to 160 °C.

For the compound `Cc1ccc2nc(C3(c4ccc(S(N)(=O)=O)cc4)C=C(C(F)F)NN3)sc2c1` (stereo unspecified), the melting point was 235 to 236 °C.

Compound `O=C(O)c1cc(F)c(O)nc1Nc1ccc(F)cc1F` showed a melting point of 213 to 216 °C.

The compound `CON=C(C#N)C1=CCCN(OC(=O)Nc2ccccc2)C1` had a melting point of 128 to 130 °C.

The compound `COc1cc(OC)nc(NC(=O)NS(=O)(=O)Oc2ccccc2)n1` returned a melting point of 136 to 139 °C.

In turn, `CCC1(CC)c2cc(-c3nc4ccccc4s3)ccc2-c2ccc(N(c3ccc(Oc4ccc([N+](=O)[O-])cc4)cc3)c3ccc(Oc4ccc([N+](=O)[O-])cc4)cc3)cc21` displayed a melting point of 223 to 225 °C.

On to `Cn1nc(C(F)(F)F)c(CS(=O)(=O)C2=NOC(C)(C)C2)c1Oc1ccccc1Cl`, for which the melting point lay within 67 to 70 °C.

For `CC(C)(C)c1cc(C(=NO)c2ccccc2)cc(C(C)(C)C)c1O`, the melting point stood at 151 °C.

Compound `C#CCCOc1ccc(/C=C/C(=O)Nc2ccccc2C(=O)O)cc1OC` returned a melting point of 178 to 180 °C.

Compound `COC(=O)Cc1ccc(O)c(C23CC4CC(CC(C4)C2)C3)c1` showed a melting point of 185 to 186 °C.

With `O=C1NC(=O)c2c1c(-c1ccccc1Cl)cc1c2c(Br)cn1CCCN1CCCC1`, the melting point fell in the range of 158 to 161 °C.

`Cc1cccc(-c2nc3cccnn3c2-c2ccnc(NC(=O)C3CC3)c2)c1` displayed a melting point of 203 to 204 °C.

As to `N#CC1C(=O)c2ccccc2Nc2ccccc21` (stereo unspecified), the melting point lay within 195 to 197 °C.

Turning to `COc1ccc(CC(O)c2ccccn2)cc1OC` (stereo unspecified), the melting point lay within 93 to 94 °C.

In turn, `COc1ccc2c(c1)N(CC(=O)O)C(=O)C(N=[N+]=[N-])CC2` (stereo unspecified) came in with a melting point of 145 to 147 °C.

`Cc1ccc(-c2c(C(=O)NCc3cc(C(F)(F)F)cc(C(F)(F)F)c3)n(CCCCO)c(=O)c3ncccc23)cc1` showed a melting point of 187 to 188 °C.

`NS(=O)(=O)c1ccc(-n2nc(C=O)cc2-c2ccccc2)cc1` gave a melting point of 177 to 180 °C.

`Cc1cc(-c2ccc(F)cc2)nc(O)n1` returned a melting point of 265 to 268 °C.

Turning to `CN=NNc1ccc(C)cc1`, the melting point was in the range of 77 to 80 °C.

As to `CCCCCCCCCCCCCCCCN1CCN(c2ccc(C=CC(=O)O)cc2)CC1`, the melting point is 251 to 253 °C.
